This experiment has as its target Voltage-gated inwardly rectifying potassium channel KCNH2 (Homo sapiens, UniProt Q12809).
Chain of Voltage-gated inwardly rectifying potassium channel KCNH2 (Q12809 whole entry): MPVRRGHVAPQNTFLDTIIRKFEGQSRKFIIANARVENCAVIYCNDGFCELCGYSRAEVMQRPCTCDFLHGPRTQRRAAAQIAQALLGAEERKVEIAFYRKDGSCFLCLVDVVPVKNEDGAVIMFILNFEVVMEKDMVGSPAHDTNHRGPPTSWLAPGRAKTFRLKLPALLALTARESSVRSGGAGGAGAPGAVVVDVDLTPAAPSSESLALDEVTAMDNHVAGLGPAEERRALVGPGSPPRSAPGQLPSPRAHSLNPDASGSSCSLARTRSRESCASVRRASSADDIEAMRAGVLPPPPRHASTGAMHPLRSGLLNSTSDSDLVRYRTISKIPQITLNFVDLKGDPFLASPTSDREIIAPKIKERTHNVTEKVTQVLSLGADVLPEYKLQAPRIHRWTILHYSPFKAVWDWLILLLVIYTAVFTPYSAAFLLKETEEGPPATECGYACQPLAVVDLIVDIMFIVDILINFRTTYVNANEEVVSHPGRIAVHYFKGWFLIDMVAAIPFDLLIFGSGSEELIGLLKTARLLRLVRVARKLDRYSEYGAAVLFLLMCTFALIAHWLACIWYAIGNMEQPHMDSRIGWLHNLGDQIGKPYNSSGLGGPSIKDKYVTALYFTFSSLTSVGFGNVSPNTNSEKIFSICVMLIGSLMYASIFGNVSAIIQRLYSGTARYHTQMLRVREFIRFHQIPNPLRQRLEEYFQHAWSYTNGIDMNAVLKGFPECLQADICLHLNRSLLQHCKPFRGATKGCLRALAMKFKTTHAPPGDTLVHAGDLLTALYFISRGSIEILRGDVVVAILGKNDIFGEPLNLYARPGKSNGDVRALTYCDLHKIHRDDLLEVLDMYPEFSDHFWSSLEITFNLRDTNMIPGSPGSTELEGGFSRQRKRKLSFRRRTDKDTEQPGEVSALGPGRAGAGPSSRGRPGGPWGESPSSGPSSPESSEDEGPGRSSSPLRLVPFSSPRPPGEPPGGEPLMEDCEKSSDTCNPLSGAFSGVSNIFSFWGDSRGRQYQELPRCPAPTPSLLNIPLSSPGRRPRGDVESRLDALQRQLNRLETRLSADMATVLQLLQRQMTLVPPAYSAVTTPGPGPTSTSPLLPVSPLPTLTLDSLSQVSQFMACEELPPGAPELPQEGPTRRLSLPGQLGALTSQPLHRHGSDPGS
Description: Inhibition of hERG expressed in HEK cells by patch clamp method
What is called IC50 is the point on the concentration scale where inhibition reaches its midpoint. Lower therefore signals greater potency in that assay. With `CCNC(=N)NC(=O)Nc1c(CC)cc(NS(=O)(=O)c2ccccc2)cc1CC`, the IC50 was > 30 µM.
Consider `CCNC(=N)NC(=O)Nc1c(CC)cc(S(=O)(=O)NCC)cc1CC`, for which the IC50 is > 30 µM.
On to `CCNC(=N)NC(=O)Nc1c(CC)cc(C(=O)NC(C)C)cc1CC`, for which the 50% inhibitory concentration (IC50) is > 30 µM.
Take `CCNC(=N)NC(=O)Nc1c(CC)cc(C(=O)NCc2ccccc2)cc1CC`: the IC50 is > 30 µM.

(Values after ChEMBL document CHEMBL5038650, “In Vitro and In Vivo Inhibition of the Mycobacterium tuberculosis Phosphopantetheinyl Transferase PptT by Amidinoureas” (J Med Chem, 2022).)
